Key:
Test in all cases: relative viability (nuclei count vs DMSO), 5 days (fraction); higher = more cells survive
[1] = compound: C1=CC=C2C(=C1)N=C(S2)C(C#N)C3=NC(=NC=C3)NCCC4=CN=CC=C4 + CC(=O)c1c(C)c2cnc(Nc3ccc(N4CCNCC4)cn3)nc2n(C2CCCC2)c1=O [Palbociclib] (partner 0.5 µM)
In short: (§1)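 Dosing by pin tool came one day after lung cancer cell lines were seeded in 1536-well plates, using either one drug or a fixed anchor-drug dose plus five library-drug doses (not always all listed) in √10 steps. After 5 days, nuclei were counted on 4× images. Relative viability is treated-well nuclei count divided by vehicle-well nuclei count, and values are medians of duplicate plates.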

CUDC-101 + Crizotinib = compound: C#Cc1cccc(Nc2ncnc3cc(OC)c(OCCCCCCC(=O)NO)cc23)c1 [CUDC-101] + C[C@@H](Oc1cc(-c2cnn(C3CCNCC3)c2)cnc1N)c1c(Cl)ccc(F)c1Cl [Crizotinib] (partner 1 µM)
In short: as §1

CUDC-101 + Linsitinib = compound: C#Cc1cccc(Nc2ncnc3cc(OC)c(OCCCCCCC(=O)NO)cc23)c1 [CUDC-101] + C[C@]1(O)C[C@@H](c2nc(-c3ccc4ccc(-c5ccccc5)nc4c3)c3c(N)nccn32)C1 [Linsitinib] (partner 1 µM)
In short: as §1

NVP-TAE684 + Lapatinib = compound: COc1cc(N2CCC(N3CCN(C)CC3)CC2)ccc1Nc1ncc(Cl)c(Nc2ccccc2S(=O)(=O)C(C)C)n1 [NVP-TAE684] + CS(=O)(=O)CCNCc1ccc(-c2ccc3ncnc(Nc4ccc(OCc5cccc(F)c5)c(Cl)c4)c3c2)o1 [Lapatinib] (partner 2 µM)
In short: as §1

Row | Cell Line | relative viability ([1]; first compound 0.005 µM) | relative viability ([1]; first compound 0.01581 µM) | relative viability ([1]; first compound 0.05 µM) | relative viability ([1]; first compound 0.1581 µM) | relative viability ([1]; first compound 0.5 µM) | relative viability (CUDC-101 + Crizotinib; first compound 0.01 µM) | relative viability (CUDC-101 + Crizotinib; first compound 0.03162 µM) | relative viability (CUDC-101 + Crizotinib; first compound 0.1 µM) | relative viability (CUDC-101 + Crizotinib; first compound 0.3162 µM) | relative viability (CUDC-101 + Crizotinib; first compound 1 µM) | relative viability (CUDC-101 + Linsitinib; first compound 0.01 µM) | relative viability (CUDC-101 + Linsitinib; first compound 0.03162 µM) | relative viability (CUDC-101 + Linsitinib; first compound 0.1 µM) | relative viability (CUDC-101 + Linsitinib; first compound 0.3162 µM) | relative viability (CUDC-101 + Linsitinib; first compound 1 µM) | relative viability (NVP-TAE684 + Lapatinib; first compound 0.2 µM) | relative viability (NVP-TAE684 + Lapatinib; first compound 2 µM) | relative viability (NVP-TAE684 + Lapatinib; first compound 0.6325 µM)
1 | EPLC-272H | 0.358 | 0.32 | 0.317 | 0.284 | 0.304 | 0.904 | 0.904 | 0.86 | 0.751 | 0.582 | 1.25 | 1.1 | 1.16 | 1.05 | 1.08 | 0.813 | 0.955 | –
2 | A-427 | 0.542 | 0.5 | 0.519 | 0.525 | 0.56 | 1.05 | 0.868 | 0.773 | 0.829 | 0.579 | 1.09 | 1.05 | 1.05 | 1.11 | 1.05 | 1.12 | 0.922 | –
3 | NCI-H1755 | 0.431 | 0.44 | 0.481 | 0.5 | 0.644 | 0.81 | 0.896 | 0.828 | 0.942 | 0.743 | 1.04 | 0.988 | 0.994 | 0.986 | 0.968 | 0.996 | 0.891 | 1.06
4 | NCI-H838 | 0.223 | 0.211 | 0.216 | 0.214 | 0.213 | 0.87 | 0.74 | 0.832 | 0.669 | 0.382 | 1.08 | 0.85 | 1.08 | 1.06 | 0.898 | 1.12 | 0.287 | 0.758
5 | ABC-1 | 0.525 | – | 0.597 | 0.554 | 0.451 | 0.941 | 0.906 | 0.742 | 0.44 | 0.33 | 0.816 | 0.778 | 0.601 | 0.567 | 0.303 | 1.06 | 0.976 | 1.33
6 | NCI-H2228 | 0.564 | 0.886 | 0.649 | 1.12 | 0.597 | 0.46 | 0.551 | 0.492 | 0.411 | 0.318 | 0.894 | 0.652 | 0.625 | 0.722 | 0.949 | 0.458 | 0.321 | 0.212
7 | NCI-H661 | 0.428 | 0.433 | 0.415 | 0.416 | 0.411 | 1.07 | 1.08 | 0.954 | 1.03 | 0.943 | 0.64 | 0.487 | 0.74 | 0.681 | 0.675 | 0.518 | 0.493 | 0.51
8 | EKVX | 0.294 | 0.367 | 0.41 | 0.531 | 0.285 | 0.977 | 0.892 | 0.964 | 1.07 | 0.604 | 1.17 | 0.84 | 0.938 | 1.07 | 0.709 | 0.199 | 0.155 | 0.189
9 | HCC-827 | 0.415 | 0.597 | 0.432 | 0.492 | 0.512 | 0.966 | 0.501 | 0.298 | 0.218 | 0.174 | 0.965 | 0.537 | 0.257 | 0.203 | 0.205 | 0.187 | 0.207 | 0.203
10 | NCI-H2009 | 0.223 | 0.168 | 0.215 | 0.229 | 0.206 | 1.02 | 0.992 | 1.11 | 0.991 | 1.03 | 1.21 | 1.14 | 1.19 | 1.2 | 1.17 | 0.938 | 0.731 | 0.888
11 | NCI-H1437 | 0.372 | 0.329 | 0.327 | 0.312 | 0.304 | 1.13 | 0.862 | 0.963 | 0.941 | 0.916 | 1.16 | 0.842 | 0.957 | 0.983 | 0.4 | 0.874 | 0.418 | 0.729
12 | NCI-H2087 | 0.24 | 0.208 | 0.214 | 0.261 | 0.227 | 0.798 | 0.959 | 0.804 | 0.855 | 0.642 | 0.916 | 0.87 | 1.01 | 0.882 | 0.812 | 1.36 | 0.986 | 1.02
13 | PC-14 | 0.34 | 0.479 | 0.515 | 0.559 | 0.441 | 0.935 | 0.825 | 0.848 | 0.76 | 0.301 | 0.986 | 0.782 | 1.01 | 0.683 | 0.137 | 0.336 | 0.245 | 0.305
14 | H3255 | 0.367 | 0.309 | 0.303 | 0.327 | 0.305 | 0.76 | 0.845 | 0.387 | 0.621 | 0.269 | 1.02 | 0.751 | 0.38 | 0.5 | 0.203 | 0.279 | 0.167 | 0.18
15 | NCI-H460 | – | 0.146 | 0.118 | 0.147 | 0.143 | 1.04 | 0.982 | 0.719 | 1.06 | 0.787 | 0.928 | 0.648 | 0.901 | 0.757 | 0.595 | 0.903 | 0.441 | 1.29

— the supplement of paper PMC10307832
